Several values for one entry are separate records, joined by “and”; a condition that tells them apart may be missing. Equal values may be shown once.

Test [1] deals with HCC1937. The settings on record: 72 h. In a few lines:
(§1)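 Compound dissolved in 5 µl medium was placed in 384-well plates before 20 µl of breast cancer cell suspension was added, and the plates were incubated for 72 h. Cells then received 2.5 µl CellTiter-Blue for 2 h at 37 °C, and fluorescence was read at 560/590 nm. EC50 values come from percent-inhibition dose-response fits that were censored at the highest concentration, with plates normalised to vehicle and a positive kill control and rows with a zero drug sensitivity score excluded.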

Test [2] relates to MDA-MB-468. The settings on record: 72 h. In a few lines: as §1
The subject of test [3] is DU-4475. Kind of test: normalised viability (% of control), CellTiter-Blue; higher = more viable cells (about 100 = DMSO control). The settings on record: incubation time: 72 h. In a few lines:
(§2)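 384-well plates were pre-loaded with compound in 5 µl medium before 20 µl of breast cancer cell suspension was seeded. Following 72 h incubation, 2.5 µl CellTiter-Blue reagent was added for 2 h at 37 °C. Fluorescence was read at 560/590 nm and plates were normalised to vehicle (100) and a positive kill control (0), checked by Z'-factor. Normalised viability is reported at a single listed concentration of the series.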
On the technique in general: The colour change of resazurin is a common sign of viable cells or microbes.

Test [4] has as its system BT-474. The description is as above. The settings on record: incubation time: 72 h. In a few lines: as §2
In test [5] the test system is CAL-148. The description is as above. Conditions: incubation time: 72 h. In a few lines: as §2
Test [6] has as its system MDA-MB-436. Conditions: 72 h. Here is the method:
(§3)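 Drug sensitivity and resistance testing (DSRT) of breast cancer cell lines in 384-well plates, 5 concentrations in 10-fold dilutions over a compound-specific 10,000-fold range. After 72 h, cytotoxicity was read by CellTox Green fluorescence and viability by CellTiter-Glo luminescence (multiplexed), normalised to DMSO and benzethonium chloride controls. EC50 is the inflection point of the fitted dose-response curve (bottom asymptote free, so it can be relative for partial curves) and is censored at the highest tested concentration. Rows with DSS 0 (no meaningful response) were excluded.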

Test [7] has as its system MFM-223. Conditions: 72 h. In a few lines: (§4)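 Two sequential readouts followed a 72 h incubation of breast cancer cell lines with compound at 5 concentrations in 10-fold steps over a compound-specific 10,000-fold range: CellTox Green fluorescence (485/520 nm) for cell death, then CellTiter-Glo luminescence, after 10 min at room temperature, for viability. Each plate was normalised to 0.1 % DMSO and a positive kill control. Dose-response curves were fitted for EC50, censored at the top concentration.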

Test [8] relates to DU-4475. The settings on record: 72 h. In a few lines:
as §4

The test system of test [9] is HDQ-P1. Conditions: 72 h. In a few lines: as §4
Test [10] deals with CAL-148. Conditions: 72 h. In a few lines: as §4
Test [11] concerns HCC1143. Conditions: 72 h. In a few lines: as §4
For test [12], the system named is HCC1937. The settings on record: 72 h. Here is the method: as §3
The source holds these as a separate data set.

For test [13], the system named is MFM-223. Conditions: 72 h. Here is the method:
as §3
This is another data set of the same source.

The test system of test [14] is CAL-85-1. Conditions: 72 h. Here is the method:
as §3

For test [15], the system named is CAL-148. The settings on record: 72 h. Here is the method:
as §3
The source holds these as a separate data set.

Test [16] concerns MFM-223. The settings on record: 72 h. In a few lines:
as §1
This is another data set of the same source.

The subject of test [17] is BT-474. The settings on record: 72 h. In a few lines:
as §1

For test [18], the system named is BT-549. Conditions: 72 h. In a few lines: as §1
In test [19] the test system is SK-BR-3. Conditions: 72 h. In a few lines:
as §1

Test [20] deals with Hs578T. Conditions: 72 h. In a few lines:
as §1

Test [21] deals with MDA-MB-231. The settings on record: 72 h. In a few lines:
as §1

Test [22] concerns HCC1599. The settings on record: 72 h. In a few lines:
as §1

Test [23] deals with HCC1143. Conditions: 72 h. In a few lines:
as §1
The source holds these as a separate data set.

Test [24] has as its system CAL-120. Conditions: 72 h. In a few lines: as §1
The test system of test [25] is CAL-85-1. The settings on record: 72 h. In a few lines: as §1
This is another data set of the same source.

Test [26] deals with DU-4475. The settings on record: 72 h. In a few lines: as §1
This is another data set of the same source.

For test [27], the system named is HDQ-P1. The settings on record: 72 h. In a few lines:
as §1
This is another data set of the same source.

Test [28] concerns CAL-51. Conditions: 72 h. In a few lines:
as §1

Test [29] has as its system CAL-148. Conditions: 72 h. In a few lines:
as §1
The source holds these as a separate data set.

Test [30] concerns BT-549. Conditions: 72 h. Here is the method: as §3
The source holds these as a separate data set.

The subject of test [31] is MDA-MB-436. Conditions: 72 h. In a few lines:
as §1
This is another data set of the same source.

Test [32] concerns HCC1599. The settings on record: 72 h. In a few lines:
as §4
This is another data set of the same source.

For test [33], the system named is MCF-10A. The settings on record: 72 h. Here is the method:
as §3

Test [34] has as its system HDQ-P1. The settings on record: 72 h. Here is the method:
as §3
The source holds these as a separate data set.

Test [35] relates to BT-474. The settings on record: 72 h. Here is the method: as §3
The source holds these as a separate data set.

Test [36] deals with MDA-MB-453. Conditions: 72 h. Here is the method: as §3
Test [37] concerns CAL-51. The settings on record: 72 h. Here is the method:
as §3
This is another data set of the same source.

The subject of test [38] is MDA-MB-231. Conditions: 72 h. Here is the method:
as §3
The source holds these as a separate data set.

Test [39] has as its system MDA-MB-468. Conditions: 72 h. Here is the method: as §3
This is another data set of the same source.

The subject of test [40] is Hs578T. The settings on record: 72 h. Here is the method: as §3
This is another data set of the same source.

With `O=C(O)CCCc1ccc(N(CCCl)CCCl)cc1` [Chlorambucil], the “EC50, CellTiter-Blue viability” value came to 731 nM in [1] and 5340 nM in test [2]. Besides, the values for the normalised viability in test [3] (3 nM), in test [4] (10 nM) and in test [5] (3 nM) were 101%, 120% and 98%, respectively. Besides, the “EC50, CellTox Green” value in test [6] is more than 10000 nM.

In the case of `Cn1c(=O)n(-c2ccc(C(C)(C)C#N)cc2)c2c3cc(-c4cnc5ccccc5c4)ccc3ncc21` [Dactolisib], the “EC50, CellTiter-Glo” value in test [7] was 14.8 nM; in test [8], 42.8 nM; in test [9], 12.8 nM; in test [10], 18.7 nM; in [11], 17.9 nM. Also, the “EC50, CellTox Green” value in test [12] was determined as 80.7 nM; in [13], 579 nM; in [14], 197 nM; in [15], 100 nM.

Take `CO[C@H]1C[C@@H]2CC[C@@H](C)[C@@](O)(O2)C(=O)C(=O)N2CCCC[C@H]2C(=O)O[C@H]([C@H](C)C[C@@H]2CC[C@@H](OCCO)[C@H](OC)C2)CC(=O)[C@H](C)/C=C(\C)[C@@H](O)[C@@H](OC)C(=O)[C@H](C)C[C@H](C)/C=C/C=C/C=C/1C` [Everolimus]: the “EC50, CellTiter-Blue viability” value in [1] was determined as 2.95 nM; in [16] it was 0.27 nM; in test [17], 0.289 nM; in test [18] it was 0.381 nM; in test [19] it was 0.945 nM; in test [20], 0.13 nM. The “EC50, CellTiter-Blue viability” value in test [21] was determined as 26.9 nM; in [22], 11.8 nM; in test [23] it was 0.14 nM; in test [24] it was 0.304 nM; in test [25] it was 0.219 nM; in test [26], 2.34 nM. Moreover, the “EC50, CellTiter-Blue viability” value in [27] came out at 0.35 nM; in test [28], 1.14 nM; in [29] it was 0.675 nM. Besides, the “EC50, CellTiter-Glo” value was 0.29 nM in test [7]; 1.24 nM in test [8]; 5.68 nM in test [9]; 0.38 nM in test [10]; 0.39 nM in test [11]. For the same compound, the normalised viability in [3] (0.3 nM) was 86.3% and 104%; in test [4] (1 nM) it was 76.6% and 65.5%; in [5] (0.3 nM), 77.8% and 72.2%. The results for the “EC50, CellTox Green” value in [13] and in test [30] were 8.31 nM and more than 100 nM, respectively.

Take `CCCCCCCCc1ccc(CCC(N)(CO)CO)cc1` [Fingolimod]: the “EC50, CellTiter-Blue viability” value stood at 2960 nM in [1]; 4430 nM in test [16]; 1780 nM in [31]; 3940 nM in test [17]; 2220 nM in test [18]; 3870 nM in test [19]. Also, the “EC50, CellTiter-Blue viability” value worked out at 3440 nM in test [20]; 2140 nM in [21]; 3550 nM in test [2]; 2380 nM in test [24]; 5290 nM in [25]; 5350 nM in test [27]. Further, the “EC50, CellTiter-Glo” value in test [7] was found to be 6920 nM; in test [9], 6870 nM; in test [32], 9540 nM; in test [10] it was 9190 nM. Further, the normalised viability in test [3] (3 nM) was found to be 103%; in [4] (10 nM), 121%; in test [5] (3 nM) it was 85.7%. Further, the “EC50, CellTox Green” value in test [12] was 320 nM; in test [13] it was more than 10000 nM; in [33] it was 1110 nM; in [14], 2040 nM; in [34], 7660 nM; in test [6], 8120 nM. In addition, the “EC50, CellTox Green” value is 3460 nM in test [35]; 7630 nM in [36]; 8700 nM in test [30]; 7860 nM in test [37]; 2650 nM in test [38]; 2510 nM in test [39].

Take `Cc1cc2c(C(C)C)c(O)c(O)c(C=O)c2c(O)c1-c1c(C)cc2c(C(C)C)c(O)c(O)c(C=O)c2c1O` [Gossypol]: the normalised viability in [3] (30 nM) was 94.1%; in test [4] (100 nM), 115%; in test [5] (30 nM), 94.2%.

`Cc1ccc(NC(=O)c2ccc(CN3CCN(C)CC3)cc2)cc1Nc1nccc(-c2cccnc2)n1` [Imatinib]: the normalised viability in [3] (3 nM) is 92.2% and 97.2%; in test [4] (10 nM) it was 108% and 112%; in [5] (3 nM), 80.4% and 92.6%. Besides, the “EC50, CellTox Green” value in test [36] is 2820 nM; in test [40] it was more than 10000 nM.

The values above are taken from the supplement of paper PMC4862054.
